row,Compound,melting point
1,"CCOC(=O)c1c(-c2cccc(N(C)C)c2)c(C)n2c1-c1cc(OC)c(OC)cc1CC2(C)C [Example 4, 2-(3-Dimethylamino-phenyl)-8,9-dimethoxy-3,5,5-trimethyl-5,6-dihydro-pyrrolo[2,1-a]isoquinoline-1-carboxylic acid ethyl ester]",101 to 102 °C
2,"COc1cc2c(cc1OC)-c1c(C#N)c(-c3cccc4ccccc34)c(C)n1CC2 [Example 22, 8,9-Dimethoxy-3-methyl-2-naphthalen-1-yl-5,6-dihydro-pyrrolo[2,1-a]isoquinoline-1-carbonitrile]",226 to 229 °C
3,"COC(=O)CCc1c(-c2ccncc2)c(C#N)c2n1CCc1cc(OC)c(OC)cc1-2 [Example 29, 3-(1-Cyano-8,9-dimethoxy-2-pyridin-4-yl-5,6-dihydro-pyrrolo[2,1-a]isoquinolin-3-yl)-propionic acid methyl ester]",191 to 193 °C
4,"COc1cc2c(cc1OC)-c1c(C)c(-c3cc(C)c(O)c(C)c3)c(C)n1CC2 [Example 68, 4-(8,9-Dimethoxy-1,3-dimethyl-5,6-dihydro-pyrrolo[2,1-a]isoquinolin-2-yl)-2,6-dimethyl-phenol]",183 to 185 °C

# Other lines, results leading:
row,melting point,Compound
1,219 to 221 °C,"COc1cc2c(cc1OC)-c1c(C#N)c(-c3cn(S(C)(=O)=O)c4ccccc34)c(C)n1C(C)C2 (centres unmarked) [Example 40, 2-(1-Methanesulfonyl-1H-indol-3-yl)-8,9-dimethoxy-3,5-dimethyl-5,6-dihydro-pyrrolo[2,1-a]isoquinoline-1-carbonitrile]"
2,187 to 189 °C,"COc1cc2c(cc1OC)-c1c(C#N)c(-c3ccnc(C)c3)c(C)n1C(C)C2 (centres unmarked) [Example 45, 8,9-Dimethoxy-3,5-dimethyl-2-(2-methyl-pyridin-4-yl)-5,6-dihydro-pyrrolo[2,1-a]isoquinoline-1-carbonitrile]"
3,232 to 234 °C,"CCOc1cc2c(cc1OC)-c1c(C#N)c(-c3cc(C)c(O)c(C)c3)c(C)n1C(C)C2 (centres unmarked) [Example 53, 8-Ethoxy-2-(4-hydroxy-3,5-dimethyl-phenyl)-9-methoxy-3,5-dimethyl-5,6-dihydro-pyrrolo[2,1-a]isoquinoline-1-carbonitrile]"
4,177 to 179 °C,"COC(=O)c1c(-c2cc(C)c(O)c(C)c2)c(C)n2c1-c1cc(OC)c(OC)cc1CC2C (centres unmarked) [Example 65, 2-(4-Hydroxy-3,5-dimethyl-phenyl)-8,9-dimethoxy-3,5-dimethyl-5,6-dihydro-pyrrolo[2,1-a]isoquinoline-1-carboxylic acid methyl ester]"

# From patent US20060148840A1, “Pyrrolodihydroisoquinolines as pde10 inhibitors” (Altana Pharma AG, priority 2003, published 2006)
